Consider two molecules from publication PMC12473123, “Structure–Function Insights into Quinuclidine-3-One BisQACs: Synthesis, Modulation of Bacterial Resistance, Structure–Activity Relationship, and Biological Profiling” (Pharmaceuticals, 2025).

For orientation: IC50 means the concentration that inhibits the measured activity by half. As usually defined, the inhibition is the change of the read-out against control, counted positive when it falls.

Assay [1] deals with Escherichia coli ATCC 25922. Briefly: Broth microdilution MIC. Format: cell-based. The conditions noted are these: Escherichia coli, ATCC25922, read-out: Minimum Inhibitory Concentrations (MIC). For orientation: Broth dilution looks for growth in wells or tubes with falling amounts of substance.
For assay [2], the system named is Listeria monocytogenes ATCC 7644. As to the kind of experiment: Broth microdilution MIC. The class given is cell-based. The conditions noted are these: Listeria monocytogenes, ATCC7644, read-out: Minimum Inhibitory Concentrations (MIC), Listeria monocytogenes ATCC 7644.
The test system of assay [3] is Staphylococcus aureus ATCC 25923. Briefly: Time-kill kinetics assay. The class given is cell-based. Here is the method:
To assess the temporal dynamics of bacterial viability upon exposure to the test compounds, a time-kill kinetics assay was performed using the Gram-positive reference strain Staphylococcus aureus ATCC 25923. An overnight culture of the strain was subcultured into fresh, pre-warmed Mueller–Hinton broth (MHB) and incubated under aerobic conditions at 37 °C with agitation (220 rpm) until reaching the early exponential growth phase. The bacterial suspension was then standardized to an initial concentration of approximately 5 × 10^5 CFU/mL. […] Wells containing untreated bacterial cultures served as growth controls. Immediately after mixing, a 10 µL sample from each well was withdrawn, diluted in 990 µL of MHB, and serially diluted tenfold up to 10^−6. From each dilution, 20 µL was plated on MHB agar using a sterile loop to determine the initial bacterial count (time zero). The treated plates were incubated at 37 °C, and additional samples were collected at predetermined time points (2, 4, 6, 8, 12, and 24 h) following the same dilution and plating protocol. After 24 h of incubation at 37 °C, colonies were counted, and viable bacterial counts were expressed as log10 CFU/mL for each time point. Bactericidal activity was evaluated by plotting the log10 CFU/mL over time, providing a dynamic profile of the compound’s killing kinetics.

Assay [4] concerns Enterococcus faecalis ATCC 29212. Briefly: Broth microdilution MIC. The class given is cell-based. Particulars: Enterococcus faecalis, ATCC29212, read-out: Minimum Inhibitory Concentrations (MIC), Enterococcus faecalis ATCC 29212.
Assay [5] has as its system Bacillus cereus ATCC 14579. As to the kind of experiment: Broth microdilution MIC. The class given is cell-based. The conditions noted are these: ATCC14579, read-out: Minimum Inhibitory Concentrations (MIC), Bacillus cereus ATCC 14579.
Assay [6] relates to Staphylococcus aureus ATCC 25923. As to the kind of experiment: Broth microdilution MIC. The class given is cell-based. The conditions noted are these: Staphylococcus aureus, ATCC25923, read-out: Minimum Inhibitory Concentrations (MIC).
For assay [7] the test system is unchanged. As to the kind of experiment: Biofilm inhibition assay (crystal violet). Format: cell-based. Here is the method:
(§1) The ability of the candidate compounds to inhibit biofilm formation was evaluated by determining the minimum biofilm inhibitory concentration (MBIC) against the biofilm-forming strains Staphylococcus aureus ATCC 25923 and Listeria monocytogenes ATCC 7644. Overnight bacterial cultures were diluted in fresh, pre-warmed Mueller–Hinton broth (MHB) and incubated at 37 °C with constant shaking at 220 rpm. Once the cultures reached the exponential growth phase (OD600 = 0.3–0.5), they were standardized to a final concentration of 4 × 10^6 CFU/mL.
(§2) Plates were incubated at 37 °C for 24 to 48 h, depending on the bacterial strain. After incubation, the planktonic cells were carefully aspirated to preserve the integrity of the biofilm layer. Wells were gently rinsed with sterile ultrapure Milli-Q water and air-dried at 60 °C for 1 h to fix the biofilms. Biofilm formation was quantified using a crystal violet (CV) staining method. Wells were stained with 100 µL of 0.1% CV solution and incubated at room temperature for 1 h. Excess dye was removed by rinsing with sterile ultrapure Milli-Q water, followed by air-drying. Bound CV was solubilized with 100 µL of 70% ethanol and incubated for 30 min. The solubilized dye was transferred to a fresh plate, and absorbance was measured at 595 nm using a microplate reader (Bio-Tek EL808, Winooski, VT, USA). Absorbance values were directly proportional to biofilm biomass. Untreated bacterial cultures served as positive controls for biofilm formation, while sterile MHB served as the negative control.

The next assay concerns RPE1 cells. As to the kind of experiment: Cytotoxicity MTS assay. Particulars: Homo sapiens, RPE-1, 48 h, read-out: IC50 RPE1. The class given is cell-based, human. How it is done:
(§3) The cytotoxic potential of the selected drug candidates was evaluated using the CellTiter 96® AQueous One Solution Cell Proliferation Assay (Promega, Madison, WI, USA), following the manufacturer’s protocol. Human cell lines RPE1 and HEK293 were cultured at 37 °C in a humidified incubator with 5% CO2. Test compounds were dissolved in the appropriate growth medium and serially diluted across a range of concentrations in 96-well microtiter plates. Each well was seeded with 5000 cells and incubated for 48 h under standard culture conditions. Following this incubation period, 20 µL of MTS reagent was added to each well, and the plates were further incubated for 3 h to allow for color development. Absorbance was measured at 490 nm using a microplate reader to determine cell viability. Cytotoxicity was quantified as the half-maximal inhibitory concentration (IC50), defined as the concentration of compound that reduced cell viability by 50%. […] IC50 values were calculated using GraFit 6.0 software by plotting compound concentration against absorbance and fitting the data to a sigmoidal dose–response curve.
Background: Formazan colour is commonly taken as a measure of viable cells.

The subject of a further assay is HEK293 cells. As to the kind of experiment: Cytotoxicity MTS assay. The class given is cell-based, human. The conditions noted are these: Homo sapiens, HEK293, 48 h, read-out: IC50 HEK293. Here is the method: as §3
Assay [8] relates to Staphylococcus aureus ATCC 33591 (methicillin-resistant). As to the kind of experiment: Broth microdilution MIC. Format: cell-based. Particulars: Staphylococcus aureus, ATCC33591, read-out: Minimum Inhibitory Concentrations (MIC).
Assay [9] deals with Pseudomonas aeruginosa ATCC 27853. As to the kind of experiment: Broth microdilution MIC. The class given is cell-based. The conditions noted are these: Pseudomonas aeruginosa, ATCC27853, read-out: Minimum Inhibitory Concentrations (MIC).
The test system of assay [10] is Salmonella enterica (food isolate). As to the kind of experiment: Broth microdilution MIC. Format: cell-based. The conditions noted are these: read-out: Minimum Inhibitory Concentrations (MIC).
The subject of assay [11] is Staphylococcus aureus ATCC 25923. Briefly: Time-resolved growth kinetics. Format: cell-based. Particulars: subinhibitory concentrations, relative to 2(QC16)3 and 2(QC16)6. Here is the method:
(§4) The antimicrobial activity of the candidate compounds against Staphylococcus aureus ATCC 25923 and Listeria monocytogenes ATCC 7644 was further evaluated using a time-resolved growth kinetics assay in 96-well microtiter plates. Overnight bacterial cultures were diluted in fresh, pre-warmed Mueller–Hinton broth (MHB) and incubated at 37 °C with orbital shaking at 220 rpm. Upon reaching the exponential growth phase (OD600 = 0.3–0.5), cultures were standardized to a final concentration of 5 × 10^4 CFU/mL. Aliquots (50 µL) of the standardized inoculum were dispensed into wells containing either no antimicrobial agent (negative control) or the test compounds at concentrations corresponding to ½ MIC and MIC. Bacterial growth was continuously monitored over a 24 h period by measuring absorbance at 595 nm every 10 min using a Bio-Tek EL808 microplate reader (Winooski, VT, USA). Growth kinetics were assessed by comparing the optical density profiles of treated samples against the untreated control. Each experiment was performed independently twice, with all conditions tested in triplicate. Data are presented as the mean values of these replicates.

The subject of assay [12] is Staphylococcus aureus Clinical/MRSA. Briefly: Broth microdilution MIC. Format: cell-based. The conditions noted are these: Staphylococcus aureus, MRSA, read-out: Minimum Inhibitory Concentrations (MIC).
The subject of assay [13] is Listeria monocytogenes ATCC 7644. As to the kind of experiment: Biofilm inhibition assay (crystal violet). Format: cell-based. The conditions noted are these: Listeria monocytogenes, ATCC7644, read-out: biofilm inhibition. How it is done:
as §1
as §2, with “Aliquots (50 µL) of the standardized bacterial suspension were inoculated into 96-well microtiter plates containing the test compounds at final concentrations of 100, 50, 25, and 12.5 µg/mL. Plates” for “Plates”

The test system is the same in assay [14]. Briefly: Time-resolved growth kinetics. The class given is cell-based. Particulars: MIC and ½ MIC. Here is the method: as §4

Each structure is given as a SMILES string.

With `CCCCCCCCCCCCCCNC1C[N+]2(CCCCCC[N+]34CCC(CC3)C(NCCCCCCCCCCCCCC)C4)CCC1CC2` (racemic) [2(QC14)6, (±)-1,1′-(Hexane-1,6-diyl) bis(3-(tetradecylamino)quinuclidinium) dibromide], the MIC in assay [1] turned out to be 19 µM; in assay [2], 19 µM; in [4], 38 µM; in assay [5], 75 µM; in assay [6] it was 38 µM; in assay [8], 19 µM. Further, the MIC was above 75 µM in assay [9], 75 µM in assay [10] and 75 µM in assay [12]. Also, the “time to rapid bactericidal activity” value in assay [3] (S. aureus ATCC 25923) is on record as at most 3 h. In addition, in assay [3] (S. aureus ATCC 25923, 2 × MIC), the “time to complete killing” value was determined as 2 h. For the same molecule, the biofilm inhibition in assay [7] (S. aureus ATCC 25923, 6.25 µg/mL) is 13%; in assay [7] (S. aureus ATCC 25923, 12.5 µg/mL), 15%; in [7] (S. aureus ATCC 25923, 25 µg/mL) it was 34%; in assay [7] (S. aureus ATCC 25923, 50 µg/mL), “remained effective”; in [7] (S. aureus ATCC 25923, 100 µg/mL), above 90%. For the same molecule, the IC50 was determined as 61 µM in the assay on RPE1 cells and 42 µM with HEK293 cells. Besides, in assay [11], the “growth curve slope in exponential phase” value is reported as “shallower growth curve slope”.
On to `CCCCCCCCCCCCCCCCNC1C[N+]2(CCCC[N+]34CCC(CC3)C(NCCCCCCCCCCCCCCCC)C4)CCC1CC2` (racemic) [2(QC16)4, (±)-1,1′-(Butane-1,4-diyl) bis(3-(hexadecylamino)quinuclidinium) dibromide], for which the MIC in assay [1] is 19 µM; in assay [2], 9 µM; in assay [4], 38 µM; in assay [5], above 75 µM; in assay [6], 75 µM; in assay [8], 9 µM. The MIC in assay [9] was above 75 µM; in assay [10], 75 µM; in assay [12], 75 µM. In assay [13], the inhibition at 6.25 µg/mL was above 50%. In addition, the inhibition at 12.5 µg/mL in assay [13] is above 70%. For the same molecule, the inhibition at 25 µg/mL in assay [13] was above 90%. The inhibition at 50 µg/mL in assay [13] was above 90%. For the same molecule, in assay [13], the inhibition at 100 µg/mL stood at 92%. The values for the IC50 in the assay on RPE1 cells and in the assay on HEK293 cells were 34 µM and 25 µM, respectively. In addition, in assay [14], the “effect on bacterial growth” value is on record as “pronounced inhibitory effect”.
